The text below walks through data of PMC10653753 (Emerging Microbes & Infections, 2023).

Data set [1] concerns CHIKV. Particulars: Vero cells, cited from earlier work.
Data set [2] has as its system CHIKV. Particulars: read-out: 50% inhibitory concentration against CHIKV; Huh-7 cells; cited from earlier work.
Data set [3] relates to CHIKV. Nature of the data set: Cell-based antiviral efficacy in CHIKV-infected Vero cells, plaque titration. Particulars: Chikungunya virus, 72 h, read-out: EC50, CHIKV replication.
For data set [4] the following is noted: monkeys, 500 mg/kg; cited from earlier work.

Where two headings read alike, the source gives them in different places.

`O=c1cc(-c2ccccc2)oc2cc(O)c(O)c(O)c12` [baicalein]: the “50% inhibitory concentration against CHIKV” value in the data set on CHIKV [1] was 1.891 µg/mL. Besides, the IC50 is 7 µM in the data set with CHIKV [1] (read-out: 50% inhibitory concentration against CHIKV) and 16.9 µM in the data set with CHIKV [2]. In addition, the EC50 with CHIKV [3] was 0.52 ± 0.06 µM. In addition, in data set [4], the “Toxicity throughout the pharmacokinetic study” value is “no apparent toxicity”.

In general, EC50 refers to the concentration that produces a half-maximal response.
